# Assay results: patent US4147861A, “1N-(α-Hydroxy-ω-aminoalkanoyl)- 6'N-methyl-3',4'-dideoxykanamycin B and the production thereof” (Zaidan Hojin Biseibutsu Kagaku Kenkyu Kai, priority 1977, dated 1979)
# Like-named read-outs stand apart in the source and are kept apart here.
# Columns and labels:
# Bacillus anthracis = assay: microbe, parasite or virus in culture; type: cell-based; details: 18 h, read-out: Minimum Inhibitory Concentrations
# Salmonella typhosa T-63 = assay: Minimum inhibitory concentration, serial dilution method on nutrient agar; type: cell-based; details: Salmonella enterica, 18 h, read-out: Minimum Inhibitory Concentrations
# [1] = tested on: Escherichia coli K-12 ML 1629; assay: as above; type: cell-based; details: read-out: Minimum Inhibitory Concentrations
# Escherichia coli K-12 = assay: as above; type: cell-based; details: K12; Escherichia coli K-12; 37° C., 18 hours; read-out: Minimum Inhibitory Concentrations
# [2] = tested on: Pseudomonas aeruginosa 99; assay: as above; type: cell-based; details: 37° C., 18 hours, read-out: Minimum Inhibitory Concentrations
# [3] = tested on: Bacillus cereus ATCC 10702; assay: as above; type: cell-based; details: read-out: Minimum Inhibitory Concentrations
# [4] = tested on: Escherichia coli LA290 R56; assay: as above; type: cell-based; details: LA290R56, 18 h, read-out: Minimum Inhibitory Concentrations
# [5] = tested on: Pseudomonas aeruginosa GN315; assay: as above; type: cell-based; details: Pseudomonas aeruginosa GN315; 37° C., 18 hours; read-out: Minimum Inhibitory Concentrations
# [6] = tested on: kanamycin-resistant bacteria; details: prior art statement; cited from earlier work
# [7] = tested on: Bacillus subtilis PCI 219; assay: Minimum inhibitory concentration, serial dilution method on nutrient agar; type: cell-based; details: PCI219, 37° C., 18 hours, read-out: Minimum Inhibitory Concentrations
# Escherichia coli NIHJ = assay: as above; type: cell-based; details: read-out: Minimum Inhibitory Concentrations
# [8] = tested on: Pseudomonas aeruginosa No. 12; assay: as above; type: cell-based; details: read-out: Minimum Inhibitory Concentrations
# [9] = tested on: Shigella dysenteriae JS 11910; assay: as above; type: cell-based; details: JS11910, 18 h, read-out: Minimum Inhibitory Concentrations
# [10] = tested on: Mycobacterium smegmatis ATCC 607; assay: as above; type: cell-based; details: Mycolicibacterium smegmatis, ATCC607, 37° C., 18 hours, read-out: Minimum Inhibitory Concentrations
# [11] = tested on: Salmonella enteritidis 1891; assay: as above; type: cell-based; details: Salmonella enterica; Salmonella enteritidis 1891; 37° C., 18 hours; read-out: Minimum Inhibitory Concentrations
# [12] = tested on: Escherichia coli LA290 R64; assay: as above; type: cell-based; details: LA290R64, 18 h, read-out: Minimum Inhibitory Concentrations
# [13] = tested on: Staphylococcus aureus Terajima; assay: as above; type: cell-based; details: 37° C., 18 hours, read-out: Minimum Inhibitory Concentrations
# Staphylococcus aureus = assay: as above; type: cell-based; details: 37° C., 18 hours, read-out: Minimum Inhibitory Concentrations
# Sarcina lutea PCI 1001 = assay: as above; type: cell-based; details: Micrococcus luteus, PCI1001, 18 h, read-out: Minimum Inhibitory Concentrations
# [14] = tested on: Klebsiella pneumoniae PCT 602; assay: as above; type: cell-based; details: PCT602; Klebsiella pneumoniae PCT 602; 37° C., 18 hours; read-out: Minimum Inhibitory Concentrations
# [15] = tested on: Corynebacterium bovis 1810; assay: as above; type: cell-based; details: Corynebacterium bovis 1810; 37° C., 18 hours; read-out: Minimum Inhibitory Concentrations
# [16] = tested on: Escherichia coli LA290 R55; assay: as above; type: cell-based; details: LA290R55, 18 h, read-out: Minimum Inhibitory Concentrations
# [17] = tested on: Klebsiella pneumoniae 22 No. 3038; assay: as above; type: cell-based; details: 37° C., 18 hours, read-out: Minimum Inhibitory Concentrations
# Description: (§1) The minimum inhibitory concentrations (mcg./ml.) of 1N-(DL-isoseryl)-6'N-methyl-3',4'-dideoxykanamycin B (abbreviated as DL-IS-MDKB); 1N-(L-isoseryl)-6'N-methyl-3',4'-dideoxykanamycin B (abbreviated as L-IS-MDKB); 1N-(L-4-amino-[…])-6'N-methyl-3',4'-dideoxykanamycin B (abbreviated as AHB-MDKB); and 1N-(L-5-amino-2-hydroxyvaleryl)-6'N-methyl-3',4'-dideoxykanamycin B (abbreviated as AHV-MDBK) against various organisms were determined according to serial dilution method using nutrient agar medium at 37° C., the readings being made after 18 hours incubation. For the comparison purpose, the minimum inhibitory concentrations (mcg./ml.) of 1 N-(L-4-amino-2-hydroxybutyryl)-kanamycin A (abbreviated as AHB-KMA) and 1N-([…])-kanamycin B (abbreviated as AHB-KMB) which are known from U.S. Pat. No. 3,781,268 were also determined by the same manner as stated above.
# [18] = tested on: Escherichia coli K-12 ML 1630; assay: as above; type: cell-based; details: K12ML1630, 37° C., 18 hours, read-out: Minimum Inhibitory Concentrations
# Description: as §1
# [19] = tested on: Pseudomonas aeruginosa A3; assay: as above; type: cell-based; details: 37° C., 18 hours, read-out: Minimum Inhibitory Concentrations
# Description: as §1
# Shigella sonnei JS 11746 = assay: as above; type: cell-based; details: JS11746, 37° C., 18 hours, read-out: Minimum Inhibitory Concentrations
# Description: as §1
# [20] = tested on: Shigella flexneri 4b JS 11811; assay: as above; type: cell-based; details: 4BJS11811, 37° C., 18 hours, read-out: Minimum Inhibitory Concentrations
# Description: as §1
# Escherichia coli K-12 R5 = assay: as above; type: cell-based; details: K12R5, 18 h, read-out: Minimum Inhibitory Concentrations
# [21] = tested on: Escherichia coli K-12 ML 1410; assay: as above; type: cell-based; details: read-out: Minimum Inhibitory Concentrations
# [22] = tested on: Pseudomonas aeruginosa TI-13; assay: as above; type: cell-based; details: Pseudomonas aeruginosa, TI13, 18 h, read-out: Minimum Inhibitory Concentrations
# Escherichia coli W677 = assay: as above; type: cell-based; details: Escherichia coli W677; 37° C., 18 hours; read-out: Minimum Inhibitory Concentrations
# [23] = tested on: Bacillus subtilis NRRL B-558; assay: as above; type: cell-based; details: NRRLB558, 37° C., 18 hours, read-out: Minimum Inhibitory Concentrations
# [24] = tested on: Staphylococcus aureus FDA 209P; assay: as above; type: cell-based; details: FDA209P, 37° C., 18 hours, read-out: Minimum Inhibitory Concentrations
# Proteus vulgaris OX 19 = assay: as above; type: cell-based; details: OX19; Proteus vulgaris OX 19; 37° C., 18 hours; read-out: Minimum Inhibitory Concentrations
# [25] = tested on: Escherichia coli JR66/W677; assay: as above; type: cell-based; details: Escherichia coli, JR66/W677, 18 h, read-out: Minimum Inhibitory Concentrations
# [26] = tested on: Escherichia coli K-12 ML 1410 R81; assay: as above; type: cell-based; details: 18 h, read-out: Minimum Inhibitory Concentrations
Structure (SMILES),MIC (Bacillus anthracis),MIC (Salmonella typhosa T-63),MIC (Escherichia coli K-12),MIC [2],MIC [4],MIC [5],MIC [7],MIC [9],MIC [10],MIC [11],MIC [12],MIC [13],MIC (Staphylococcus aureus),MIC (Sarcina lutea PCI 1001),MIC [14],MIC [15],MIC [16],MIC [17],MIC [18],MIC [19],further results
"NCC[C@H](O)C(=O)N[C@@H]1C[C@H](N)[C@@H](O[C@H]2O[C@H](CN)[C@@H](O)[C@H](O)[C@H]2O)[C@H](O)[C@H]1O[C@H]1O[C@H](CO)[C@@H](O)[C@H](N)[C@H]1O [AHB-KMA, 1 N-(L-4-amino-2-hydroxybutyryl)-kanamycin A, reference compound]",< 0.2 mg/L,0.39 mg/L,0.78 mg/L,6.25 mg/L,0.39 mg/L,100 mg/L,< 0.2 mg/L,3.13 mg/L,< 0.2 mg/L,0.78 mg/L,0.39 mg/L,< 0.2 mg/L,< 0.2 mg/L,3.13 mg/L,0.39 mg/L,0.78 mg/L,0.78 mg/L,1.56 mg/L,0.78 mg/L,3.13 mg/L,"MIC ([1]; K12ML1629, Escherichia coli K-12 ML 1629, 37° C., 18 hours): 0.78 mg/L; MIC ([3]; ATCC10702, Bacillus cereus ATCC 10702, 37° C., 18 hours): 0.78 mg/L; activity against kanamycin-resistant bacteria [6]: active against a large number of kanamycin-resistant bacteria; MIC (Escherichia coli NIHJ; Escherichia coli NIHJ, 37° C., 18 hours): 0.78 mg/L; MIC ([8]; Pseudomonas aeruginosa, NO.12, 18 h): 3.13 mg/L; MIC (Shigella sonnei JS 11746): 1.56 mg/L; MIC [20]: 3.13 mg/L; MIC (Escherichia coli K-12 R5): 0.39 mg/L; MIC ([21]; K12ML1410, Escherichia coli K-12 ML 1410, 37° C., 18 hours): 0.78 mg/L; MIC [22]: 3.13 mg/L; MIC (Escherichia coli W677): < 0.2 mg/L; MIC [23]: < 0.2 mg/L; MIC [24]: 0.39 mg/L; MIC (Proteus vulgaris OX 19): 0.78 mg/L; MIC [25]: 1.56 mg/L; MIC [26]: 1.56 mg/L"
"CNC[C@@H]1CC[C@@H](N)[C@@H](O[C@H]2[C@H](O)[C@@H](O[C@H]3O[C@H](CO)[C@@H](O)[C@H](N)[C@H]3O)[C@H](NC(=O)[C@@H](O)CN)C[C@@H]2N)O1 [L-IS-MDKB, 1N-(L-isoseryl)-6'N-methyl-3',4'-dideoxykanamycin B]",< 0.2 mg/L,0.39 mg/L,0.78 mg/L,25 mg/L,0.78 mg/L,25 mg/L,< 0.2 mg/L,3.13 mg/L,0.39 mg/L,0.78 mg/L,0.39 mg/L,< 0.2 mg/L,< 0.2 mg/L,3.13 mg/L,0.78 mg/L,0.78 mg/L,1.56 mg/L,1.56 mg/L,1.56 mg/L,3.13 mg/L,"MIC ([1]; Escherichia coli, K12ML1629, 18 h): 1.56 mg/L; MIC ([3]; Bacillus cereus, ATCC10702, 18 h): 1.56 mg/L; MIC (Escherichia coli NIHJ; Escherichia coli, 18 h): 1.56 mg/L; MIC ([8]; Pseudomonas aeruginosa No. 12, 37° C., 18 hours): 25 mg/L; MIC (Shigella sonnei JS 11746): 3.13 mg/L; MIC [20]: 1.56 mg/L; MIC (Escherichia coli K-12 R5): 1.56 mg/L; MIC ([21]; Escherichia coli, K12ML1410, 18 h): 1.56 mg/L; MIC [22]: 6.25 mg/L; MIC (Escherichia coli W677): 0.78 mg/L; MIC [23]: < 0.2 mg/L; MIC [24]: < 0.2 mg/L; MIC (Proteus vulgaris OX 19): 0.78 mg/L; MIC [25]: 1.56 mg/L; MIC [26]: 1.56 mg/L"
